The results in this text go back to PubChem BioAssay (NCI).

Some test systems named below: HL-60(TB) leukemia; NCI/ADR-RES ovarian; HCC-2998 colon; TK-10 renal; SK-MEL-5 melanoma; U251 CNS; MDA-MB-435; PC-3 prostate; OVCAR-4 ovarian; SW-620 colon.
Holding throughout (experiment): inhibition of tumour cell growth, NCI panel, 48 h

SMILES strings stand for the structures.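 Compound exposure: 48 hours, 5 concentrations, 96-well plates. The concentration for 50% growth inhibition is given as GI50. TGI denotes the concentration required for complete inhibition of growth.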 Some results are limits rather than exact numbers.

As to `COC(=O)C1(C#N)C(C)(C)N=C(c2ccccc2)C12CCCCC2` (stereo not given), the TGI in the test with HL-60(TB) leukemia, with NCI/ADR-RES ovarian, with HCC-2998 colon, with TK-10 renal, with SK-MEL-5 melanoma and with U251 CNS was greater than 100 µM throughout. Moreover, the TGI in the test on MDA-MB-435, with PC-3 prostate, with OVCAR-4 ovarian and in the test with SW-620 colon was greater than 100 µM in each case.

Turning to `COc1cc(/C=N/n2c(-c3ccccc3)nn(C(C)=O)c2=O)cc(OC)c1OC`, the TGI is 9.68 µM with HL-60(TB) leukemia; greater than 42.6 µM with NCI/ADR-RES ovarian; 16.3 µM with HCC-2998 colon; 31.8 µM in the test with TK-10 renal; 6.68 µM in the test with SK-MEL-5 melanoma; greater than 44.6 µM in the test with U251 CNS. The TGI with MDA-MB-435 was 1.96 µM; in the test with PC-3 prostate, greater than 81.8 µM; in the test on OVCAR-4 ovarian, greater than 100 µM; in the test with SW-620 colon it was greater than 100 µM.

As to `CC1(C)Cc2nc3c(cc2C(=O)C1C=N/C(C#N)=C(\N)C#N)C(=O)C(C=N/C(C#N)=C(\N)C#N)C(C)(C)C3` (stereo not given), the TGI in the test on HL-60(TB) leukemia is 10.1 µM; with NCI/ADR-RES ovarian, greater than 42 µM; with HCC-2998 colon it was 10.3 µM; with TK-10 renal, 18 µM; in the test on SK-MEL-5 melanoma it was 4.66 µM; in the test with U251 CNS it was 3.14 µM. Further, the TGI in the test on MDA-MB-435 is 3.48 µM; in the test with PC-3 prostate, 5.35 µM; in the test with OVCAR-4 ovarian, greater than 100 µM; with SW-620 colon it was greater than 20.5 µM.

Take `O=C(O)CCSCc1ccccc1`: the TGI in the test on HL-60(TB) leukemia, with NCI/ADR-RES ovarian, with HCC-2998 colon, in the test with TK-10 renal, with SK-MEL-5 melanoma and in the test on U251 CNS was greater than 100 µM throughout. Further, the TGI in the test with MDA-MB-435, with PC-3 prostate, with OVCAR-4 ovarian and with SW-620 colon was greater than 100 µM throughout.

With `OC(c1ccc(C(F)(F)F)cc1)C(F)(F)c1nc2ccccc2o1` (stereo not given), the TGI in the test on HL-60(TB) leukemia, in the test on NCI/ADR-RES ovarian, with HCC-2998 colon, with TK-10 renal, with SK-MEL-5 melanoma and in the test on U251 CNS was greater than 100 µM each time. The TGI with MDA-MB-435, with PC-3 prostate, with OVCAR-4 ovarian and with SW-620 colon was greater than 100 µM in each case.

Turning to `O=C(Nc1ccc(-n2ccc3c(NC(=O)c4ccccc4)ncnc32)cc1)Nc1ccc(Cl)c(Cl)c1`, the GI50 in the test with HL-60(TB) leukemia is 8.18 µM; with NCI/ADR-RES ovarian it was 10.3 µM; in the test on HCC-2998 colon, 5.34 µM; in the test with TK-10 renal, 1.44 µM; with SK-MEL-5 melanoma, 7.05 µM; with U251 CNS it was 0.942 µM. In addition, the GI50 in the test on MDA-MB-435 was 2.44 µM; in the test on PC-3 prostate, 1.06 µM; in the test on OVCAR-4 ovarian it was 0.887 µM; with SW-620 colon, 1.54 µM. In addition, the TGI in the test on HL-60(TB) leukemia stood at 30.6 µM; with NCI/ADR-RES ovarian, 50 µM; in the test with HCC-2998 colon, 20.7 µM; in the test with TK-10 renal, 3.46 µM; in the test on SK-MEL-5 melanoma it was 15.1 µM; with U251 CNS it was 2.29 µM. The TGI is 11.5 µM in the test on MDA-MB-435, 2.86 µM with PC-3 prostate, 1.8 µM in the test with OVCAR-4 ovarian and 5.31 µM in the test with SW-620 colon.

As for `CCOC(=O)C1=CCOc2cc(N(C)C)ccc21`, the TGI with HL-60(TB) leukemia, in the test on NCI/ADR-RES ovarian, in the test on HCC-2998 colon, in the test on TK-10 renal, in the test on SK-MEL-5 melanoma and in the test on U251 CNS was greater than 100 µM in each case. Also, the TGI in the test on MDA-MB-435, in the test on PC-3 prostate and in the test with SW-620 colon was greater than 100 µM in each case.

Consider `CC(=O)OCC1OC(n2c(-c3ccccc3)c(C(C)=O)c(-c3cccc4ccccc34)c(C#N)c2=S)C(OC(C)=O)C(OC(C)=O)C1OC(C)=O` (stereo not given), for which the TGI in the test with HL-60(TB) leukemia, with NCI/ADR-RES ovarian, with HCC-2998 colon, with TK-10 renal, in the test on SK-MEL-5 melanoma and with U251 CNS was greater than 100 µM throughout. Besides, the TGI with MDA-MB-435, with PC-3 prostate, with OVCAR-4 ovarian and in the test with SW-620 colon was greater than 100 µM throughout.

As to `COc1ccccc1C1ON=C(c2ccc([N+](=O)[O-])cc2)N1C12CC3CC(CC(C3)C1)C2` (stereo not given), the TGI with HL-60(TB) leukemia was 42.5 µM; in the test with NCI/ADR-RES ovarian, greater than 100 µM; in the test on HCC-2998 colon, greater than 100 µM; in the test on TK-10 renal, greater than 100 µM; with SK-MEL-5 melanoma, greater than 100 µM; in the test with U251 CNS it was greater than 100 µM. For the same compound, the TGI with MDA-MB-435, in the test with PC-3 prostate, with OVCAR-4 ovarian and with SW-620 colon was greater than 100 µM throughout.

Regarding `COC(=O)C(Cc1c[nH]c2ccccc12)NC(=O)c1ccc(-c2ccc(Cl)cc2Cl)o1` (stereo not given), the TGI is greater than 100 µM in the test on HL-60(TB) leukemia; greater than 100 µM in the test on NCI/ADR-RES ovarian; 48.5 µM in the test on HCC-2998 colon; greater than 100 µM in the test on TK-10 renal; greater than 100 µM with U251 CNS; greater than 100 µM in the test with MDA-MB-435. Further, the figures for the TGI with PC-3 prostate, in the test with OVCAR-4 ovarian and in the test on SW-620 colon were 49.5 µM, greater than 100 µM and greater than 100 µM, respectively.

Take `NC(=O)NCCCC(NC(=O)OCCCCCCn1ccc(=O)[nH]c1=O)C(=O)O` (stereo not given): the TGI with HL-60(TB) leukemia, in the test with NCI/ADR-RES ovarian, in the test with HCC-2998 colon, with TK-10 renal, with U251 CNS and in the test on MDA-MB-435 was greater than 100 µM in each case. The TGI in the test on PC-3 prostate, with OVCAR-4 ovarian and with SW-620 colon was greater than 100 µM each time.

For `N#Cc1c(N2CCC(O)C2)c2ccccc2n2c1nc1ccccc12` (stereo not given), the TGI in the test with HL-60(TB) leukemia, with NCI/ADR-RES ovarian, in the test with HCC-2998 colon, in the test on TK-10 renal, in the test on SK-MEL-5 melanoma and in the test with MDA-MB-435 was greater than 100 µM in each case. Moreover, the TGI in the test on PC-3 prostate, with OVCAR-4 ovarian and in the test with SW-620 colon was greater than 100 µM in each case.

Take `COc1ccc(/C=C2\CCS(=O)(=O)c3ccccc3C2=O)cc1`: the TGI with HL-60(TB) leukemia stood at 66.4 µM; with NCI/ADR-RES ovarian, 50 µM; in the test on HCC-2998 colon it was 38.6 µM; in the test on TK-10 renal, 61.6 µM; with U251 CNS, 37.7 µM; in the test on MDA-MB-435 it was 89.8 µM. The TGI with PC-3 prostate came to 75.3 µM; with OVCAR-4 ovarian, 58.8 µM; with SW-620 colon, 49.1 µM.
